For data set [1], the system named is ICAM-1 expressed on HUVEC. The experiment in a line: Test about suppression of ICAM-1 expression (enzyme immuno assay, EIA), TNF-α-stimulated HUVEC. The class given is cell-based. The conditions noted are these: Homo sapiens, TNF-α 0.3 ng/ml. How it is done:
Using a culture broth containing serum for vascular endothelial cell (manufactured by Nissui Pharmaceutical Co., Ltd.) as a culture medium, HUVEC (umbilical vein endothelial cell manufactured by Morinaga Bioscience Institute) was cultured in a collagen-treated flask by the routine method.
For carrying out a test about the suppression of ICAM-1 expression with HUVEC, a collagen-treated 96-well plate was used, where HUVEC was added at 1 to 2×10^4 cells/well while the culture medium was added at 100 to 200 μl/well. The cell was cultured in 5% CO2 at 37° C. for 48 to 72 hours. Before adding a test solution, the culture medium (80 μl) was exchanged, to which 10 μl of a test solution preliminarily diluted was then added. The plate was allowed to stand alone in a CO2 incubator. 2 hours later, 10 μl of TNF-α (recombinant human TNF-α, manufactured by Genzyme) was added (to a final concentration of 0.3 ng/ml). The resulting plate was again allowed to stand alone in the CO2 incubator. 16 to 22 hours later, the cell was fixed with 1% p-formaldehyde solution. The cell was rinsed with a phosphate buffer containing Ca^2+ and Mg^2+, which was then treated with an anti-human ICAM-1 antibody (mouse IgG1, manufactured by Kyowa Medics) at ambient temperature for 30 minutes. After the cell was rinsed again with the phosphate buffer, the cell was treated with a peroxide-labeled anti-mouse IgG (H+L) (manufactured by Organon Teknik Corp.) for another 30 minutes. After the cell was again rinsed with the phosphate buffer, the color developed was measured, using a peroxidase chromogenic kit (manufactured by Sumitomo Bakelite Co., Ltd.), to determine ICAM-1 expressed on HUVEC as an expression-inhibiting ratio (%) to a non-drug group to calculate the IC50 value.

For data set [2] the following is noted: reported in non-patent reference 14; cited from earlier work.
In data set [3] the test system is footpad thickness, MeHSA-sensitized C57BL/6 mouse. As to the kind of experiment: Methylated human serum albumin-induced delayed hypersensitivity test (MeHSA-DTH). The class given is in vivo. The conditions noted are these: oral, twice, footpad thickness 24 hours after induction. How it is done:
Methylated human serum albumin (MeHSA) was dissolved in physiological saline to 5 mg/ml, which was then mixed with an equal volume of the complete Freund's adjuvant (manufactured by Iatron), to prepare an emulsion. Next, 100 μl of the prepared emulsion was injected subcutaneously into a 8-week-old male C57BL/6 mouse, for antigen sensitization. Seven days thereafter, MeHSA was dissolved in physiological saline to 1 mg/ml, which was injected at 25 μl subcutaneously into the footpad of the right hind limb, to trigger a reaction. The thickness of the footpad was measured 24 hours after the induction of the reaction, to calculate the difference from the thickness thereof before the induction of the reaction, to make an assessment. Additionally, drugs were orally given twice, namely one hour before the induction of the reaction and 16 hours after the induction thereof.

A short description of another data set: Solubility in solvents. In kind it is physicochemical. The conditions noted are these: methanol, chloroform, acetone, water, hexane.

Marks after values point to notes of the source that are not given here.

In data set [1], `C/C(=C\C=C\[C@@H]1[C@H]2[C@H](C)[C@@H](O)[C@H](C)C[C@@H]2C=C[C@@H]1C)C(=O)NCc1ccc(C)cc1` [Example 11, N-(4-Methylbenzyl)-(2E,4E)-5-[(1S,2S,4aR,6R,7S,8S,8aS)-7-hydroxy-2,6,8-trimethyl-1,2,4a,5,6,7,8,8a-octahydronaphthalen-1-yl]-2-methylpenta-2,4-dienamide] returned an IC50 of 160 µM.

Consider `COC(=O)/C=C/C=C/[C@@H]1[C@H]2[C@H](C)[C@@H](O)[C@H](C)C[C@@H]2C=C[C@@H]1C` [Coprophilin], for which the Antibacterial activity result in data set [2] is “has an antibacterial activity”.

Turning to `C/C(=C\C=C\[C@@H]1[C@H]2[C@H](C)[C@@H](O)[C@H](C)C[C@@H]2C=C[C@@H]1C)C(N)=O` [Example 22, (2E,4E)-5-[(1S,2S,4aR,6R,7S,8S,8aS)-7-Hydroxy-2,6,8-trimethyl-1,2,4a,5,6,7,8,8a-octahydronaphthalen-1-yl]-2-methylpenta-2,4-dienamide], the IC50 in data set [1] worked out at 8.8 µM.

Compound `C/C(=C\C=C\[C@@H]1[C@H]2[C@H](C)[C@@H](O)[C@H](C)C[C@@H]2C=C[C@@H]1C)C(=O)NCCc1ccncc1` [Example 13, N-(Pyridin-4-ylethyl)-(2E,4E)-5-[(1S,2S,4aR,6R,7S,8S,8aS)-7-hydroxy-2,6,8-trimethyl-1,2,4a,5,6,7,8,8a-octahydronaphthalen-1-yl]-2-methylpenta-2,4-dienamide] came in with an IC50 in data set [1] of 5.7 µM.

In turn, `COC(=O)/C(C)=C/C=C/[C@@H]1[C@H]2[C@H](C)[C@@H](O)[C@H](C)C[C@@H]2C=C[C@@H]1C` [Example 2, Methyl (2E,4E)-5-[(1S,2S,4aR,6R,7S,8S,8aS)-7-hydroxy-2,6,8-trimethyl-1,2,4a,5,6,7,8,8a-octahydronaphthalen-1-yl]-2-methylpenta-2,4-dienoate] returned a melting point of 54 to 57 °C. In addition, inhibition in data set [1] was half-maximal at 0.67 µM (IC50).

As to `C/C(=C\C=C\[C@@H]1[C@H]2[C@H](C)[C@@H](O)[C@H](C)C[C@@H]2C=C[C@@H]1C)C(=O)NCc1ccccn1` [Example 7, N-(Pyridin-2-ylmethyl)-(2E,4E)-5-[(1S,2S,4aR,6R,7S,8S,8aS)-7-hydroxy-2,6,8-trimethyl-1,2,4a,5,6,7,8,8a-octahydronaphthalen-1-yl]-2-methylpenta-2,4-dienamide], the IC50 in data set [1] was found to be 2 µM.

For `CCCCNC(=O)/C(C)=C/C=C/[C@@H]1[C@H]2[C@H](C)[C@@H](O)[C@H](C)C[C@@H]2C=C[C@@H]1C` [Example 18, N-(n-Butyl)-(2E,4E)-5-[(1S,2S,4aR,6R,7S,8S,8aS)-7-hydroxy-2,6,8-trimethyl-1,2,4a,5,6,7,8,8a-octahydronaphthalen-1-yl]-2-methylpenta-2,4-dienamide], half-maximal inhibition in data set [1] (IC50) required 2.4 µM.

Regarding `C/C(=C\C=C\[C@@H]1[C@H]2[C@H](C)[C@@H](O)[C@H](C)C[C@@H]2C=C[C@@H]1C)C(=O)N(C)C` [Example 20, N,N-Dimethyl-(2E,4E)-5-[(1S,2S,4aR,6R,7S,8S,8aS)-7-hydroxy-2,6,8-trimethyl-1,2,4a,5,6,7,8,8a-octahydronaphthalen-1-yl]-2-methylpenta-2,4-dienamide], inhibition in data set [1] was half-maximal at 1.4 µM (IC50).

`C/C(=C\C=C\[C@@H]1[C@H]2[C@H](C)[C@@H](O)[C@H](C)C[C@@H]2C=C[C@@H]1C)C(=O)N(C)Cc1ccccc1` [Example 21, N-Benzyl-N-methyl-(2E,4E)-5-[(1S,2S,4aR,6R,7S,8S,8aS)-7-hydroxy-2,6,8-trimethyl-1,2,4a,5,6,7,8,8a-octahydronaphthalen-1-yl]-2-methylpenta-2,4-dienamide] returned an IC50 in data set [1] of 4.9 µM.

With `COc1cccc(CNC(=O)/C(C)=C/C=C/[C@@H]2[C@H]3[C@H](C)[C@@H](O)[C@H](C)C[C@@H]3C=C[C@@H]2C)c1` [Example 9, N-(3-Methoxybenzyl)-(2E,4E)-5-[(1S,2S,4aR,6R,7S,8S,8aS)-7-hydroxy-2,6,8-trimethyl-1,2,4a,5,6,7,8,8a-octahydronaphthalen-1-yl]-2-methylpenta-2,4-dienamide], the IC50 in data set [1] turned out to be 2.1 µM.

On to `C/C(=C\C=C\[C@@H]1[C@H]2[C@H](C)[C@@H](O)[C@H](C)C[C@@H]2C=C[C@@H]1C)C(=O)Nc1ccccc1` [Example 16, N-Phenyl-(2E,4E)-5-[(1S,2S,4aR,6R,7S,8S,8aS)-7-hydroxy-2,6,8-trimethyl-1,2,4a,5,6,7,8,8a-octahydronaphthalen-1-yl]-2-methylpenta-2,4-dienamide], for which the IC50 in data set [1] was found to be 15 µM.

Turning to `C/C(=C\C=C\[C@@H]1[C@H]2[C@H](C)[C@@H](O)[C@H](C)C[C@@H]2C=C[C@@H]1C)C(=O)NCc1ccncc1` [Example 6, N-(Pyridin-4-ylmethyl)-(2E,4E)-5-[(1S,2S,4aR,6R,7S,8S,8aS)-7-hydroxy-2,6,8-trimethyl-1,2,4a,5,6,7,8,8a-octahydronaphthalen-1-yl]-2-methylpenta-2,4-dienamide], the “Suppression ratio (%)” value was 27.8* % in data set [3] (10 mg/kg) and 35.7** % in data set [3] (30 mg/kg). This compound showed an IC50 in data set [1] of 0.59 µM.

Take `C/C(=C\C=C\[C@@H]1[C@H]2[C@H](C)[C@@H](O)[C@H](C)C[C@@H]2C=C[C@@H]1C)CO` [Example 3, (2E,4E)-5-[(1S,2S,4aR,6R,7S,8S,8aS)-7-Hydroxy-2,6,8-trimethyl-1,2,4a,5,6,7,8,8a-octahydronaphthalen-1-yl]-2-methylpenta-2,4-dien-1-ol]: the IC50 in data set [1] amounted to 9.9 µM.

For `C/C(=C\C=C\[C@@H]1[C@H]2[C@H](C)[C@@H](O)[C@H](C)C[C@@H]2C=C[C@@H]1C)C(=O)O` [Example 1, (2E,4E)-5-[(1S,2S,4aR,6R,7S,8S,8aS)-7-hydroxy-2,6,8-trimethyl-1,2,4a,5,6,7,8,8a-octahydronaphthalen-1-yl]-2-methylpenta-2,4-dienoic acid], the Solubility entry in the data set “Solubility in solvents” was “soluble in methanol, chloroform and acetone but insoluble in water and hexane”. For the same compound, in data set [1], inhibition was half-maximal at 59 µM (IC50).

In data set [1], `C/C(=C\C=C\[C@@H]1[C@H]2[C@H](C)[C@@H](O)[C@H](C)C[C@@H]2C=C[C@@H]1C)C(=O)NCCc1ccc(O)cc1` [Example 14, N-(4-Hydroxyphenethyl)-(2E,4E)-5-[(1S,2S,4aR,6R,7S,8S,8aS)-7-hydroxy-2,6,8-trimethyl-1,2,4a,5,6,7,8,8a-octahydronaphthalen-1-yl]-2-methylpenta-2,4-dienamide] displayed a concentration for half-maximal inhibition (IC50) of 15 µM.

The compound `CNC(=O)/C(C)=C/C=C/[C@@H]1[C@H]2[C@H](C)[C@@H](O)[C@H](C)C[C@@H]2C=C[C@@H]1C` [Example 17, N-Methyl-(2E,4E)-5-[(1S,2S,4aR,6R,7S,8S,8aS)-7-hydroxy-2,6,8-trimethyl-1,2,4a,5,6,7,8,8a-octahydronaphthalen-1-yl]-2-methylpenta-2,4-dienamide] registered an IC50 in data set [1] of 2.6 µM.

The compound `C/C(=C\C=C\[C@@H]1[C@H]2[C@H](C)[C@@H](O)[C@H](C)C[C@@H]2C=C[C@@H]1C)C(=O)NC(C)(C)C` [Example 19, N-(t-Butyl)-(2E,4E)-5-[(1S,2S,4aR,6R,7S,8S,8aS)-7-hydroxy-2,6,8-trimethyl-1,2,4a,5,6,7,8,8a-octahydronaphthalen-1-yl]-2-methylpenta-2,4-dienamide] came in with an IC50 in data set [1] of 15 µM.

As for `C/C(=C\C=C\[C@@H]1[C@H]2[C@H](C)[C@@H](O)[C@H](C)C[C@@H]2C=C[C@@H]1C)C(=O)NCc1ccc(Cl)cc1` [Example 10, N-(4-Chlorobenzyl)-(2E,4E)-5-[(1S,2S,4aR,6R,7S,8S,8aS)-7-hydroxy-2,6,8-trimethyl-1,2,4a,5,6,7,8,8a-octahydronaphthalen-1-yl]-2-methylpenta-2,4-dienamide], half-maximal inhibition in data set [1] (IC50) required 140 µM.

With `C/C(=C\C=C\[C@@H]1[C@H]2[C@H](C)[C@@H](O)[C@H](C)C[C@@H]2C=C[C@@H]1C)C(=O)NCc1ccccc1` [Example 8, N-Benzyl-(2E,4E)-5-[(1S,2S,4aR,6R,7S,8S,8aS)-7-hydroxy-2,6,8-trimethyl-1,2,4a,5,6,7,8,8a-octahydronaphthalen-1-yl]-2-methylpenta-2,4-dienamide], in data set [1], half-maximal inhibition (IC50) required 0.47 µM.

In general, IC50 refers to the concentration at which inhibition is half-maximal. The term melting point denotes the temperature, or range, at which the solid turns liquid.

The values above are taken from patent US7884116B2, “Octahydronaphthalene derivative and medicine” (Nippon Shinyaku Co., Ltd., priority 2003, dated 2011).
